For assay [1], the target named is T1, AhLap RTX adhesin, carbohydrate-binding module (AhLapCBM3) (Aeromonas hydrophila, UniProt A0KNW4). Description: printed mammalian glycan array (CFG v5.[…]), GFP fluorescence. On the set-up: gene AHA_3491; GFP-tagged AhLapCBM3 (Asn3455 to Gly3940).
In assay [2] the target is T1, AhLap RTX adhesin, carbohydrate-binding module (AhLapCBM3). Description: isothermal titration calorimetry at […] °C; […] also blocks binding to cells. On the set-up: gene AHA_3491; AhLapCBM3, three-domain construct Asn3455 to Gly3940 (extender domain, split domain and CBM), His-tagged. On the technique in general: Isothermal titration calorimetry measures the heat released or taken up as one component is titrated into another.

For assay [3] the target is unchanged. Description: isothermal titration calorimetry at […] °C; also glycan array. On the set-up: gene AHA_3491; AhLapCBM3, three-domain construct Asn3455 to Gly3940 (extender domain, split domain and CBM), His-tagged.

Take `CC(=O)N[C@H]1C(O)O[C@H](CO)[C@@H](O[C@@H]2O[C@H](CO)[C@H](O)[C@H](O)[C@H]2O[C@@H]2O[C@@H](C)[C@@H](O)[C@@H](O)[C@@H]2O)[C@@H]1O[C@@H]1O[C@@H](C)[C@@H](O)[C@@H](O)[C@@H]1O` (mixture of isomers) [Lewis Y antigen]: the “printed mammalian glycan array (CFG v5.4), GFP fluorescence” value in assay [1] was “Strong binding was observed to the Lewis B and Lewis Y antigens”.
As to `C[C@@H]1OC(O)[C@@H](O)[C@H](O)[C@@H]1O` (stereo partly drawn) [L-fucose], the Kd in assay [2] was approximately 386 µM.
In the case of `CC(=O)N[C@@H]1[C@@H](O[C@@H]2O[C@H](CO)[C@H](O)[C@H](O)[C@H]2O[C@@H]2O[C@@H](C)[C@@H](O)[C@@H](O)[C@@H]2O)[C@H](O[C@@H]2O[C@@H](C)[C@@H](O)[C@@H](O)[C@@H]2O)[C@@H](CO)O[C@H]1O` [Lewis B antigen], in assay [3], the Kd was 20.8 µM.

As usually defined, the Kd is a measure of binding affinity in units of concentration. High values mean weaker binding, low ones tighter binding.

(Values after publication PMC12077191, “Aeromonas hydrophila RTX adhesin has three ligand-binding domains that give the bacterium the potential to adhere to and aggregate a wide variety of cell types” (mBio, 2025).)
